# Data published in patent publication US8445680B2, “Tetrahydrothieno pyridines” (Merck Sharp & Dohme Corp., priority 2008, dated 2013).
# Target: T1, FLAG-tagged full length PHD2 (Homo sapiens, UniProt Q9GZT9)
# T1 construct: FLAG-tagged full length PHD2; FLAG; made in house; host or cells: baculovirus-infected Sf9 cells
# Test: PHD2 inhibition assay (time resolved fluorescence, HIF-1α peptide hydroxylation, VHL detection)
# Assay type: biochemical
# Conditions: 0.2 μM 2-oxoglutarate, 0.5 μM HIF-1α peptide, 2 hr at room temperature; read-out: PHD2 Activity (PHD2 binding activity expressed as IC50)
# Protocol: To each well of a 96-well plate was added 1 μL of test compound in DMSO and 20 μl of assay buffer (50 mM Tris pH 7.4/0.01% Tween-20/0.1 mg/ml bovine serum albumin/10 μM ferrous sulfate/1 mM sodium ascorbate/20 μg/ml catalase) containing 0.15 μg/ml FLAG-tagged full length PHD2 expressed in and purified from baculovirus-infected Sf9 cells. After a 30 min preincubation at room temperature, the enzymatic reactions were initiated by the addition of 4 μL of substrates (final concentrations of 0.2 μM 2-oxoglutarate and 0.5 μM HIF-1α peptide biotinyl-[…]).
# T1 sequence (Q9GZT9 whole entry): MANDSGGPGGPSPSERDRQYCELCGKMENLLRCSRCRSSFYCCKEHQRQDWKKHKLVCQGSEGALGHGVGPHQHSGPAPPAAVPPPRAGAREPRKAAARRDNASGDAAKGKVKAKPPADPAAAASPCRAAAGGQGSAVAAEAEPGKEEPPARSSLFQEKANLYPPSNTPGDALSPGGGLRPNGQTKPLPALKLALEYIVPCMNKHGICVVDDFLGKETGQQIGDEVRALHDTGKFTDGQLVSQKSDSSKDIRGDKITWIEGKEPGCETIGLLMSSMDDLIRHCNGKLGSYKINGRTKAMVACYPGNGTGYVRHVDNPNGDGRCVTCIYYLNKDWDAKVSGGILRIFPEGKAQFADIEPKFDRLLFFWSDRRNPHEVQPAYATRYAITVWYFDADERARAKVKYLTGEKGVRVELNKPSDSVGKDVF
row,IC50 [nM],SMILES
1,≤ 10,"O=C(O)CNC(=O)c1c(O)c2c(n(Cc3ccc(OC(F)(F)F)cc3)c1=O)CS(=O)(=O)C2 [Example 65, N-({4-hydroxy-6,6-dioxido-2-oxo-1-[4-(trifluoromethoxy)benzyl]-1,2,5,7-tetrahydrothieno[3,4-b]pyridin-3-yl}carbonyl)glycine]"
2,≤ 10,"O=C(O)CNC(=O)c1c(O)c2c(n(Cc3ccc(-n4cccn4)cc3)c1=O)CSC2 [Example 23, N-({4-hydroxy-2-oxo-1-[4-(1H-pyrazol-1-yl)benzyl]-1,2,5,7-tetrahydrothieno[3,4-b]pyridin-3-yl}carbonyl)glycine]"
3,≤ 10,"Cc1ccccc1-c1cnc(Cn2c3c(c(O)c(C(=O)NCC(=O)O)c2=O)CSC3)cn1 [Example 54, N-[(4-hydroxy-1-{[5-(2-methylphenyl)pyrazin-2-yl]methyl}-2-oxo-1,2,5,7-tetrahydrothieno[3,4-b]pyridin-3-yl)carbonyl]glycine]"
4,≤ 10,"O=C(O)CNC(=O)c1c(O)c2c(n(Cc3nc(-c4ccccc4)cs3)c1=O)CSC2 [Example 7, N-({4-hydroxy-2-oxo-1-[(4-phenyl-1,3-thiazol-2-yl)methyl]-1,2,5,7-tetrahydrothieno[3,4-b]pyridin-3-yl}carbonyl)glycine]"
